Test results published in US8889712B2, “IAP antagonists” (Bristol-Myers Squibb Company, priority 2012, dated 2014).
pIC50: −log10 of the molar value. Read-outs that look alike come from different tables or passages of the source.

What was measured:
XIAP BIR3 = biological target: T1, XIAP BIR3 (Homo sapiens, UniProt P98170); assay: XIAP-BIR3/SMAC Homogeneous Time Resolved Fluorescence (HTRF) Assay; type: binding
T1 construct: His-BIR3 (241-356, XIAP)
In short: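 Competition HTRF between XIAP-BIR3 and SMAC; reaction 60 min at room temperature, then anti-6×His-terbium Fab detection for a further 30 min.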

XIAP BIR2-3 = biological target: T2, XIAP BIR2-3 (Homo sapiens, UniProt P98170, C202A/C213G); assay: XIAP-BIR2-3 dimeric SMAC Peptide Homogeneous Time Resolved Fluorescence (HTRF) Assay; type: binding
T2 construct: His-BIR2-3 (125-356, C202A/C213G, XIAP)
Method: B. […] Assays were performed in black, flat-bottom, 384-well plates. […] Compounds were dissolved at 3 mM in dimethylsulfoxide (DMSO) and evaluated at eleven serially diluted concentrations. IC50 and Ki values were derived by non-linear regression analysis.

[1] = 1 nM N-His-BIR3 (241-356, XIAP), 5 nM fluorescein labeled SMAC peptide, HTRF signal, read-out: XIAP BIR3 IC50
[2] = 0.5 nM N-His-BIR2-3 (125-356, C202A/C213G, XIAP), 20 nM fluorescein labeled dimeric SMAC peptide, HTRF signal, read-out: XIAP BIR2-3 IC50

T1 sequence (P98170 241-356): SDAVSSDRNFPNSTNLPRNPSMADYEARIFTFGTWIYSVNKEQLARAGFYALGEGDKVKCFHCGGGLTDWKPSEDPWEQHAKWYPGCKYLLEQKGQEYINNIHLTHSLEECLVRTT
T2 sequence (P98170 125-356 C202A/C213G): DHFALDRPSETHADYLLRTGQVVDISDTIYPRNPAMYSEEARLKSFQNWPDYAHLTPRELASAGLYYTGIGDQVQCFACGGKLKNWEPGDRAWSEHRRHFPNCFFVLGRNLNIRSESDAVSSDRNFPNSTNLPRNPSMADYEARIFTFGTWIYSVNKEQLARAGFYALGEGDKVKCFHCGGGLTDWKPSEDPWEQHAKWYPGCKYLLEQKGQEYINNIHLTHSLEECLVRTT

Row | pIC50 (XIAP BIR3; [1]) | pIC50 (XIAP BIR2-3; [2]) | Compound | pIC50 (XIAP BIR3) | pIC50 (XIAP BIR2-3)
1 | 8.05 | 8.55 | CN[C@@H](C)C(=O)N[C@H](C(=O)N1C[C@@H](c2ccc3c(c2)CN(C(=O)[C@@H](NC(=O)[C@H](C)NC)C(C)(C)C)[C@H](C(=O)N[C@@H]2CCCc4ccccc42)C3)C[C@H]1C(=O)N[C@@H](Cc1ccccc1)c1nnn[nH]1)C(C)(C)C [Example 78, (S)-2-((S)-3,3-Dimethyl-2-((S)-2-(methylamino)propanamido)butanoyl)-7-((3R,5S)-1-((S)-3,3-dimethyl-2-((S)-2-(methylamino)propanamido)butanoyl)-5-(((S)-2-phenyl-1-(1H-tetrazol-5-yl)ethyl)carbamoyl)pyrrolidin-3-yl)-N—((R)-1,2,3,4-tetrahydronaphthalen-1-yl)-1,2,3,4-tetrahydroisoquinoline-3-carboxamide] | – | –
2 | 7.78 | 8.47 | CN[C@@H](C)C(=O)N[C@H](C(=O)N1C[C@@H](c2ccc3c(c2)CN(C(=O)[C@@H](NC(=O)[C@H](C)NC)C(C)(C)C)[C@H](C(=O)N[C@@H]2CCCc4ccccc42)C3)C[C@H]1C(=O)N[C@@H](Cc1ccccc1)c1nnc(C)o1)C(C)(C)C [Example 79, (S)-2-((S)-3,3-Dimethyl-2-((S)-2-(methylamino)propanamido)butanoyl)-7-((3R,5S)-1-((S)-3,3-dimethyl-2-((S)-2-(methylamino)propanamido)butanoyl)-5-(((S)-1-(5-methyl-1,3,4-oxadiazol-2-yl)-2-phenylethyl)carbamoyl)pyrrolidin-3-yl)-N—((R)-1,2,3,4-tetrahydronaphthalen-1-yl)-1,2,3,4-tetrahydroisoquinoline-3-carboxamide] | – | –
3 | 8.14 | 8.59 | CN[C@@H](C)C(=O)N[C@H](C(=O)N1C[C@@H](c2ccc3c(c2)CN(C(=O)[C@@H](NC(=O)[C@H](C)NC)C(C)(C)C)[C@H](C(=O)N[C@@H]2CCCc4ccccc42)C3)C[C@H]1C(=O)N[C@@H](Cc1ccccc1)c1noc(C)n1)C(C)(C)C [Example 80, (S)-2-((S)-3,3-Dimethyl-2-((S)-2-(methylamino)propanamido)butanoyl)-7-((3R,5S)-1-((S)-3,3-dimethyl-2-((S)-2-(methylamino)propanamido)butanoyl)-5-(((S)-1-(5-methyl-1,2,4-oxadiazol-3-yl)-2-phenylethyl)carbamoyl)pyrrolidin-3-yl)-N—((R)-1,2,3,4-tetrahydronaphthalen-1-yl)-1,2,3,4-tetrahydroisoquinoline-3-carboxamide] | – | –
4 | 6.96 | 7.17 | CN[C@@H](C)C(=O)N[C@H](C(=O)N1Cc2cc([C@H]3C[C@@H](C(=O)N[C@@H](Cc4ccc5ccccc5c4)C(=O)OC)N(C(=O)[C@@H](NC(=O)[C@H](C)NC)C(C)(C)C)C3)ccc2C[C@H]1C(=O)N[C@@H](Cc1ccc2ccccc2c1)C(=O)OC)C(C)(C)C [Example 82, (S)-Methyl 2-((2S,4R)-1-((S)-3,3-dimethyl-2-((S)-2-(methylamino)propanamido)butanoyl)-4-((S)-2-((S)-3,3-dimethyl-2-((S)-2-(methylamino)propanamido)butanoyl)-3-(((S)-1-methoxy-3-(naphthalen-2-yl)-1-oxopropan-2-yl)carbamoyl)-1,2,3,4-tetrahydroisoquinolin-7-yl)pyrrolidine-2-carboxamido)-3-(naphthalen-2-yl)propanoate] | – | –
5 | 7.50 | 8.09 | CN[C@@H](C)C(=O)N[C@H](C(=O)N1Cc2cc([C@H]3C[C@@H](C(=O)N[C@H](COC)Cc4ccccc4)N(C(=O)[C@@H](NC(=O)[C@H](C)NC)C(C)(C)C)C3)ccc2C[C@H]1C(=O)N[C@H](COC)Cc1ccccc1)C(C)(C)C [Example 84, (S)-2-((S)-3,3-Dimethyl-2-((S)-2-(methylamino)propanamido)butanoyl)-7-((3R,5S)-1-((S)-3,3-dimethyl-2-((S)-2-(methylamino)propanamido)butanoyl)-5-(((S)-1-methoxy-3-phenylpropan-2-yl)carbamoyl)pyrrolidin-3-yl)-N-((S)-1-methoxy-3-phenylpropan-2-yl)-1,2,3,4-tetrahydroisoquinoline-3-carboxamide] | – | –

The remaining lines, values behind:

Row | Compound | pIC50 (XIAP BIR3; [1]) | pIC50 (XIAP BIR2-3; [2]) | pIC50 (XIAP BIR3) | pIC50 (XIAP BIR2-3)
6 | CN[C@@H](C)C(=O)N[C@H](C(=O)N1C[C@@H](c2ccc3c(c2)CN(C(=O)[C@@H](NC(=O)[C@H](C)NC)C(C)(C)C)[C@H](C(=O)N[C@@H]2CCCc4ccccc42)C3)C[C@H]1C(=O)N[C@H](COC)Cc1ccccc1)C(C)(C)C [Example 75, (S)-2-((S)-3,3-Dimethyl-2-((S)-2-(methylamino)propanamido)butanoyl)-7-((3R,5S)-1-((S)-3,3-dimethyl-2-((S)-2-(methylamino)propanamido)butanoyl)-5-(((S)-1-methoxy-3-phenylpropan-2-yl)carbamoyl)pyrrolidin-3-yl)-N-((R)-1,2,3,4-tetrahydronaphthalen-1-yl)-1,2,3,4-tetrahydroisoquinoline-3-carboxamide] | 7.84 | 8.52 | – | –
7 | CN[C@@H](C)C(=O)N[C@H](C(=O)N1C[C@@H](c2ccc3c(c2)CN(C(=O)[C@@H](NC(=O)[C@H](C)NC)C(C)(C)C)[C@H](C(=O)N[C@@H]2CCCc4ccccc42)C3)C[C@H]1C(=O)N[C@@H](Cc1ccccc1)C(=O)OC)C(C)(C)C [Example 76, (S)-Methyl 2-((2S,4R)-1-((S)-3,3-dimethyl-2-((S)-2-(methylamino)propanamido)butanoyl)-4-((S)-2-((S)-3,3-dimethyl-2-((S)-2-(methylamino)propanamido)butanoyl)-3-(((R)-1,2,3,4-tetrahydronaphthalen-1-yl)carbamoyl)-1,2,3,4-tetrahydroisoquinolin-7-yl)pyrrolidine-2-carboxamido)-3-phenylpropanoate] | – | – | 7.72 | 8.60
8 | CN[C@@H](C)C(=O)N[C@H](C(=O)N1C[C@@H](c2ccc3c(c2)CN(C(=O)[C@@H](NC(=O)[C@H](C)NC)C(C)(C)C)[C@H](C(=O)N[C@@H]2CCCc4ccccc42)C3)C[C@H]1C(=O)N[C@@H](Cc1ccccc1)C(=O)O)C(C)(C)C [Example 77, (S)-2-((2S,4R)-1-((S)-3,3-Dimethyl-2-((S)-2-(methylamino)propanamido)butanoyl)-4-((S)-2-((S)-3,3-dimethyl-2-((S)-2-(methylamino)propanamido)butanoyl)-3-(((R)-1,2,3,4-tetrahydronaphthalen-1-yl)carbamoyl)-1,2,3,4-tetrahydroisoquinolin-7-yl)pyrrolidine-2-carboxamido)-3-phenylpropanoic acid] | 8.77 | 9.10 | – | –
9 | CN[C@@H](C)C(=O)N[C@H](C(=O)N1C[C@@H](c2ccc3c(c2)CN(C(=O)[C@@H](NC(=O)[C@H](C)NC)C(C)(C)C)[C@H](C(=O)N[C@@H]2CCCc4ccccc42)C3)C[C@H]1C(=O)N[C@@H](Cc1ccccc1)c1ncc(C)o1)C(C)(C)C [Example 81, (S)-2-((S)-3,3-Dimethyl-2-((S)-2-(methylamino)propanamido)butanoyl)-7-((3R,5S)-1-((S)-3,3-dimethyl-2-((S)-2-(methylamino)propanamido)butanoyl)-5-(((S)-1-(5-methyloxazol-2-yl)-2-phenylethyl)carbamoyl)pyrrolidin-3-yl)-N—((R)-1,2,3,4-tetrahydronaphthalen-1-yl)-1,2,3,4-tetrahydroisoquinoline-3-carboxamide] | 7.87 | 8.59 | – | –
10 | CN[C@@H](C)C(=O)N[C@H](C(=O)N1Cc2cc([C@H]3C[C@@H](C(=O)N[C@@H](Cc4ccc5ccccc5c4)C(=O)O)N(C(=O)[C@@H](NC(=O)[C@H](C)NC)C(C)(C)C)C3)ccc2C[C@H]1C(=O)N[C@@H](Cc1ccc2ccccc2c1)C(=O)O)C(C)(C)C [Example 83, (S)-2-((S)-7-((3R,5S)-5-(((S)-1-Carboxy-2-(naphthalen-2-yl)ethyl)carbamoyl)-1-((S)-3,3-dimethyl-2-((S)-2-(methylamino)propanamido)butanoyl)pyrrolidin-3-yl)-2-((S)-3,3-dimethyl-2-((S)-2-(methylamino)propanamido)butanoyl)-1,2,3,4-tetrahydroisoquinoline-3-carboxamido)-3-(naphthalen-2-yl)propanoic acid] | 7.72 | 7.58 | – | –
11 | CN[C@@H](C)C(=O)N[C@H](C(=O)N1Cc2cc([C@H]3C[C@@H](C(=O)N[C@@H](Cc4ccccc4)C(=O)OC)N(C(=O)[C@@H](NC(=O)[C@H](C)NC)C(C)(C)C)C3)ccc2C[C@H]1C(=O)N[C@@H](Cc1ccccc1)C(=O)OC)C(C)(C)C [Example 85, (S)-Methyl 2-((2S,4R)-1-((S)-3,3-dimethyl-2-((S)-2-(methylamino)propanamido)butanoyl)-4-((S)-2-((S)-3,3-dimethyl-2-((S)-2-(methylamino)propanamido)butanoyl)-3-(((S)-1-methoxy-1-oxo-3-phenylpropan-2-yl)carbamoyl)-1,2,3,4-tetrahydroisoquinolin-7-yl)pyrrolidine-2-carboxamido)-3-phenylpropanoate] | – | – | 7.83 | 8.21
12 | CN[C@@H](C)C(=O)N[C@H](C(=O)N1Cc2cc([C@H]3C[C@@H](C(=O)N[C@@H](Cc4ccccc4)C(=O)O)N(C(=O)[C@@H](NC(=O)[C@H](C)NC)C(C)(C)C)C3)ccc2C[C@H]1C(=O)N[C@@H](Cc1ccccc1)C(=O)O)C(C)(C)C [Example 86, (S)-2-((S)-7-((3R,5S)-5-(((S)-1-Carboxy-2-phenylethyl)carbamoyl)-1-((S)-3,3-dimethyl-2-((S)-2-(methylamino)propanamido)butanoyl)pyrrolidin-3-yl)-2-((S)-3,3-dimethyl-2-((S)-2-(methylamino)propanamido)butanoyl)-1,2,3,4-tetrahydroisoquinoline-3-carboxamido)-3-phenylpropanoic acid] | 8.30 | 8.57 | – | –
